Series [1] deals with NCI-N87 cancer cells. In words: In vitro analysis of benzodiazepine dimer derivatives, cell viability by MTT assay. Format: cell-based. To be noted: 6 days incubation, sigmoidal dose-response fit. On the procedure:
NCI-N87 cancer cells were seeded into 24-well plates at 25×10^3 cells/1 mL medium/well. The plates were incubated for 24 hours at 37° C. in a humidified 5% CO2-in-air atmosphere. Benzodiazepine dimer derivatives were dissolved initially in DMSO at a concentration of 10 mM. Serial dilutions were made in DMSO. The series of compound dilutions in DMSO were added to triplicate wells of 24-well plates at 5 μL per well. Three wells on each individual plate received 5 μL of DMSO without compound as controls. The final concentration of DMSO per well was 0.5%. The plates were incubated for 6 days at 37° C. in a humidified 5% CO2-in-air atmosphere. Cell viability was determined by the MTT assay and IC50 was generated using a sigmoidal dose-response nonlinear regression curve fit (GraphPad Software Inc.). Results thereof are shown in FIG. 1, FIG. 2, FIG. 3, and Table 2.
(Tetrazolium dyes change colour on reduction, which living cells bring about.)

Series [2] is described as follows: Solubility test: relative solubility by retention time on analytical HPLC. Format: physicochemical. To be noted: HPLC retention times under acidic (0.1% TFA); RP-C18, 5→95% ACN in water over 15 minutes; measure of relative solubility. On the procedure: A solubility study was conducted to check the relative solubility of D-102, D-103, D-104, D-105, D-106, and D-107 on the retention time using analytical HPLC.

For series [3], the system named is NCI-N87 cancer cells. In words: In vitro analysis of protein-drug conjugates (cell cytotoxicity of antibody-drug conjugate), MTT assay. Format: cell-based. The note with it: ADCs, 6 days incubation. The protocol:
NCI-N87cancer cells were seeded in 96-well plates at a density 5000 cells per well in 100 μL of medium, and cultured for 24 hours. The four compounds ADCs in Example 77 were treated by serial dilutions of 1:4 from 50 nM to 0.0003 nM, and the antibody drug conjugate T-DM1 was treated by serial dilutions of 1:4 from 50 nM to 0.0007 nM. The series of compound dilutions in DMSO were added to triplicate wells of […] at 5 μL per well. Three wells on each individual plate received 5 μL of DMSO without compound as controls. The final concentration of DMSO per well was 0.5%. The plates were incubated for 6 days at 37° C. in a humidified 5% CO2-in-air atmosphere. Cell viability was determined by the MTT assay and IC50 was generated using a sigmoidal dose-response nonlinear regression curve fit (GraphPad software Inc.)
Results of in vitro analysis of compounds T-1-AB, T-2-AB, T-3-AB, and T-4-AB, are shown in FIG. 4, FIG. 5, FIG. 6, FIG. 7, and Table 4.

Non-standard residues stand in square brackets, D forms with d. Residues, ends and D or L forms follow the SMILES beside them. Dolaproine = CO[C@@H]([C@@H]1CCCN1)[C@@H](C)C(=O)O; Dil = CC[C@H](C)[C@H](NC)[C@@H](CC(=O)O)OC; NMeV = CN[C@H](C(=O)O)C(C)C

`COc1cc2c(cc1OCc1cc(O)cc(COc3cc4c(cc3OC)C(=O)N3Cc5c(n(C)c[n+]5C)C[C@H]3C=N4)c1)N=C[C@@H]1Cc3c([n+](C)cn3C)CN1C2=O` [Compound D-110] had an IC50 in series [1] (Homo sapiens, 144 h) of 588 ± 223 nM.

Compound `COc1cc2c(cc1OCc1cccc(COc3cc4c(cc3OC)C(=O)N3Cc5ccccc5C[C@H]3C=N4)c1)N=C[C@@H]1Cc3ccccc3CN1C2=O` [Ref-2, reference compound] showed an IC50 in series [1] (Homo sapiens, 144 h) of 0.0089 ± 0.002 nM. In the case of `COc1cc2c(cc1OCc1cc(O)cc(COc3cc4c(cc3OC)C(=O)N3Cc5ncn(C)c5C[C@H]3C=N4)c1)N=C[C@@H]1Cc3ccccc3CN1C2=O` [Compound D-105], the “Retention time” value in series [2] was 8.05 min. Moreover, the concentration for half-maximal inhibition (IC50) in series [1] (Homo sapiens, 144 h) was 0.933 ± 0.344 nM.

In series [1] (Homo sapiens, 144 h), `COc1cc2c(cc1OCc1cc(COc3cc4c(cc3OC)C(=O)N3Cc5sccc5C[C@H]3C=N4)cc(CN(C)C)c1)N=C[C@@H]1Cc3ccsc3CN1C2=O` [Compound D-108] returned an IC50 of 0.008 ± 0.001 nM. The compound `COc1cc2c(cc1OCc1cc(COc3cc4c(cc3OC)C(=O)N3Cc5cc(Br)sc5C[C@H]3C=N4)cc(CN(C)C)c1)N=C[C@@H]1Cc3sc(Br)cc3CN1C2=O` [Compound D-109] had an IC50 in series [1] (Homo sapiens, 144 h) of 0.025 ± 0.01 nM.

Regarding `CC[C@H](C)[C@@H]([C@@H](CC(=O)N1CCC[C@H]1[C@H](OC)[C@@H](C)C(=O)N[C@@H](Cc1ccccc1)C(=O)OC)OC)N(C)C(=O)[C@@H](NC(=O)[C@@H](NC)C(C)C)C(C)C` [MMAF-OMe, reference compound] (H-[NMeV]V[Dil][Dolaproine]F-OMe), the half-maximal inhibitory concentration (IC50) in series [1] is 0.182 nM. Turning to `COc1cc2c(cc1OCc1cc(COc3cc4c(cc3OC)C(=O)N3Cc5ncn(C)c5C[C@H]3C=N4)cc(CN(C)C)c1)N=C[C@@H]1Cc3c(ncn3C)CN1C2=O` [Compound D-106], in series [2], the “Retention time” value was determined as 6.02 min. Besides, 28.9 ± 15 nM corresponded to half-maximal inhibition in series [1] (Homo sapiens, 144 h) (IC50). In series [1] (Homo sapiens, 144 h), `COc1cc2c(cc1OCc1cc(O)cc(COc3cc4c(cc3OC)C(=O)N3Cc5c(ncn5C)C[C@H]3C=N4)c1)N=C[C@@H]1Cc3ncn(C)c3CN1C2=O` [Compound D-101] yielded a half-inhibitory concentration (IC50) of 17.8 ± 6.6 nM. Turning to `COc1cc2c(cc1OCc1cc(O)cc(COc3cc4c(cc3OC)C(=O)N3Cc5ncn(C)c5C[C@H]3C=N4)c1)N=C[C@@H]1Cc3c(ncn3C)CN1C2=O` [Compound D-102], in series [2], the “Retention time” value was 6.50 min. The compound also returned an IC50 in series [1] (Homo sapiens, 144 h) of 4.99 ± 0.785 nM. The corresponding values for `COc1cc2c(cc1OCc1cc(COc3cc4c(cc3OC)C(=O)N3Cc5ccoc5C[C@H]3C=N4)cc(CN(C)C)c1)N=C[C@@H]1Cc3occc3CN1C2=O` [Compound D-107] are 8.60 min and 0.013 ± 0.002 nM. For `COc1cc2c(cc1OCc1cc(O)cc(COc3cc4c(cc3OC)C(=O)N3Cc5ccsc5C[C@H]3C=N4)c1)N=C[C@@H]1Cc3sccc3CN1C2=O` [Compound D-103] the same measures were 9.75 min and 0.0472 ± 0.01 nM.

As for `COc1cc2c(cc1OCc1cc(COc3cc4c(cc3OC)C(=O)N3Cc5ccccc5C[C@H]3C=N4)cc(CN(C)C)c1)N=C[C@@H]1Cc3ccccc3CN1C2=O` [Ref-1, reference compound], in series [2], the “Retention time” value stood at 9.30 min. In series [1] (Homo sapiens, 144 h), the IC50 is 0.013 ± 0.003 nM. The corresponding values for `COc1cc2c(cc1OCc1cc(COc3cc4c(cc3OC)C(=O)N3Cc5ccsc5C[C@H]3C=N4)cc(CN(C)C)c1)N=C[C@@H]1Cc3sccc3CN1C2=O` [Compound D-104] are 8.98 min and 0.013 ± 0.003 nM. The corresponding values for `COc1cc2c(cc1OCc1cc(O)cc(COc3cc4c(cc3OC)C(=O)N3Cc5ccccc5C[C@H]3C=N4)c1)N=C[C@@H]1Cc3ccccc3CN1C2=O` [Ref-3, reference compound] are 10.00 min and 0.025 ± 0.018 nM. In series [1] (Homo sapiens, 144 h), `COc1ccc(C2=CN3C(=O)c4cc(OC)c(OCc5cc(COc6cc7c(cc6OC)C(=O)N6Cc8ccsc8C[C@H]6C=N7)cc(CN(C)C)c5)cc4N=C[C@@H]3C2)cc1` [Compound D-114] showed an IC50 of 1.89 nM.

In the case of T-DM1, the midpoint of inhibition in series [3], the IC50, lay at 0.213 ± 0.12 nM.

The term IC50 denotes the concentration at which inhibition is half-maximal.

For the origin of these results see patent US12274898B2, “Substituted benzodiazepines as antibody-drug conjugates” (priority 2018, dated 2025).
